Tests used:
Type in all cases: cell-based
[1] = target: T1, Arabidopsis thaliana AtSWEET7 transporter, wild type (Table 2: SEQ ID NO: 3; FIG. 12: SEQ ID NO:2) (Arabidopsis thaliana, UniProt Q8LBF7); assay: C14 labeled sugar uptake assay (zero-trans influx), SR8D8 expressing AtSWEET7; settings: initial glucose uptake (5 s), 30° C., pH 6.5; cell wet weight; ± SEM
T1 construct: expressed in transfected cells; host or cells: S. cerevisiae SR8D8 (SR8 with HXT1-7 and GAL2 deleted), plasmid p42K-GPD1p-CYC1t
T1 sequence (Q8LBF7 1-258): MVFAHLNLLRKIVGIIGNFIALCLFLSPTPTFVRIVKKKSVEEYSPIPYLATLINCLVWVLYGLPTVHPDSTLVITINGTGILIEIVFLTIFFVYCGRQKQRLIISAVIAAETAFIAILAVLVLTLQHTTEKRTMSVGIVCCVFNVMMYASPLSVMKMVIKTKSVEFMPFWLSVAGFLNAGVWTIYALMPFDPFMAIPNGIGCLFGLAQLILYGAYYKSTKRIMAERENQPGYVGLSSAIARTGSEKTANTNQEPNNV
Experimental: (§1) FIG. 7A illustrates sugar uptake kinetics by SR8D8. FIG. 7B illustrates sugar uptake kinetics by SR8D8 expressing AtSWEET1. FIG. 7C illustrates sugar uptake kinetics by SR8D8 expressing ScGal2. FIG. 7D illustrates sugar uptake kinetics by SR8D8 expressing AtSWEET7. FIG. 7E illustrates sugar uptake kinetics by SR8D8 expressing LST1_205437. Initial xylose uptake (20 s) was measured at 30° C. over a concentration range of 1 to 500 mM xylose. FIG. 7F illustrates sugar uptake kinetics by SR8D8. FIG. 7G illustrates sugar uptake kinetics by SR8D8 expressing AtSWEET1. FIG. 7H illustrates sugar uptake kinetics by SR8D8 expressing ScGal2. FIG. 7I illustrates sugar uptake kinetics by SR8D8 expressing AtSWEET7. FIG. 7J illustrates sugar uptake kinetics by SR8D8 expressing LST1_205437. Initial glucose uptake (5 s) was measured at 30° C. over a concentration range of 0.2 to 100 mM glucose. […]
(§2) A xylose fermenting S. cerevisiae yeast (SR8) with HXT1-7Δ, GAL2Δ deletions was used for transporter screening and characterization (SR8D8). […] Biomass was calculated from the OD600 measured using a Biomate 5 UV-visible spectrophotometer (Fisher, NY, USA). All growth rates were measured using a Bioscreen C plate reader system (Growth Curves USA, Piscataway, NJ, USA). […]
(§3) Uptake was measured at sugar concentrations 0.2, 1, 5, 25, and 100 mM for glucose and 1, 5, 25, 66, 100, 200, and 500 mM for xylose. […]

[2] = target: T2, Arabidopsis thaliana AtSWEET1 transporter, wild type, SEQ ID NO: 1 (Arabidopsis thaliana, UniProt Q8L9J7); assay: C14 labeled sugar uptake assay, SR8D8 expressing AtSWEET1; settings: in words; FIGS. 7B and 7D legend: FIG. 7G
T2 construct: whole-cell 14C sugar uptake
T2 sequence (Q8L9J7 1-247): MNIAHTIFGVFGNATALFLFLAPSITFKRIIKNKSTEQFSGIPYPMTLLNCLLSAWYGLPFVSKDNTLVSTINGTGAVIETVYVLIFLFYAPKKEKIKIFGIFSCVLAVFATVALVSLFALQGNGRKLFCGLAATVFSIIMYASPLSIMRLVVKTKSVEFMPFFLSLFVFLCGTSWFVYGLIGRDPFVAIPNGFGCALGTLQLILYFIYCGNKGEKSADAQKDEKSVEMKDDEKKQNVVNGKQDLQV
Experimental: as §1, §2, §3

[3] = target: T3, Saccharomyces cerevisiae ScGal2 (Gal2) transporter, SEQ ID NO:32 (Saccharomyces cerevisiae, UniProt P13181); assay: C14 labeled sugar uptake assay (zero-trans influx), SR8D8 expressing ScGal2; settings: initial glucose uptake (5 s), 30° C., pH 6.5
T3 construct: expressed in transfected cells; host or cells: S. cerevisiae SR8D8 (SR8 with HXT1-7 and GAL2 deleted), plasmid p42K-GPD1p-CYC1t
T3 sequence (P13181 1-574): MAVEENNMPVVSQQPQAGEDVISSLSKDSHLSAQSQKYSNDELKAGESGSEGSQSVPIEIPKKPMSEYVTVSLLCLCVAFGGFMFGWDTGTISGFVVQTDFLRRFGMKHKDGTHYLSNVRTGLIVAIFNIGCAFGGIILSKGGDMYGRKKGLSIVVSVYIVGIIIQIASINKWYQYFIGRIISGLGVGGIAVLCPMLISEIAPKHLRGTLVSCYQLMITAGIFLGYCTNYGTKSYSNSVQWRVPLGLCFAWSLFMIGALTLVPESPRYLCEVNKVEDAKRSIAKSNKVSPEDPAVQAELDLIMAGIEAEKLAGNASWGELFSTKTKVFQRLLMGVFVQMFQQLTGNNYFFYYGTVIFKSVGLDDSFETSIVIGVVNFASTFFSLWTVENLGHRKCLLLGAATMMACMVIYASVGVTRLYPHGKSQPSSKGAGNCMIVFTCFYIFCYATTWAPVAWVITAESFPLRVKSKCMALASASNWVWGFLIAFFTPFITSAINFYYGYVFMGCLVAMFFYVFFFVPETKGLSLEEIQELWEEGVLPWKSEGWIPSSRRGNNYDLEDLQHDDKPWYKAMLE
Experimental: FIG. 7A illustrates sugar uptake kinetics by SR8D8. FIG. 7B illustrates sugar uptake kinetics by SR8D8 expressing AtSWEET1. FIG. 7C illustrates sugar uptake kinetics by SR8D8 expressing ScGal2. FIG. 7D illustrates sugar uptake kinetics by SR8D8 expressing AtSWEET7. FIG. 7E illustrates sugar uptake kinetics by SR8D8 expressing LST1_205437. Initial xylose uptake (20 s) was measured at 30° C. over a concentration range of 1 to 500 mM xylose. FIG. 7F illustrates sugar uptake kinetics by SR8D8. FIG. 7G illustrates sugar uptake kinetics by SR8D8 expressing AtSWEET1. FIG. 7H illustrates sugar uptake kinetics by SR8D8 expressing ScGal2. FIG. 7I illustrates sugar uptake kinetics by SR8D8 expressing AtSWEET7. FIG. 7J illustrates sugar uptake kinetics by SR8D8 expressing LST1_205437. Initial glucose uptake (5 s) was measured at 30° C. over a concentration range of 0.2 to 100 mM glucose. Curve fitting for Michaelis-Menten kinetics was applied to data of three independent measurements at each concentration.
as §2, with “(SR8D8). SR8D8 was grown in YPE medium/plate (10 g/L yeast extract, 20 g/L peptone, and 5 g/L ethanol).” for “(SR8D8).”
SR8D8 containing the respective plasmid was grown on selective YPE medium to an OD600 of 1-1.5, harvested by centrifugation, and washed twice in ice-cold uptake buffer (100 mM potassium phosphate, pH 6.5). […] Radioactivity was analyzed in a Beckman-Coulter LS6500 multi-purpose liquid scintillation counter (Beckman-Coulter, CA, USA).
Uptake was measured at sugar concentrations 0.2, 1, 5, 25, and 100 mM for glucose and 1, 5, 25, 66, 100, 200, and 500 mM for xylose. Inhibition of xylose uptake by glucose was measured at 25, 66, and 100 mM xylose with additional 25 and 100 mM unlabeled glucose.

OC[C@H]1OC(O)[C@H](O)[C@@H](O)[C@@H]1O (stereo partly shown) [Glucose]
Vmax (glucose) [1]: 110.3 ± 7.2 nmol/min/mg | glucose transport kinetics [2]: transports glucose more efficiently as compared to AtSWEET7 | Vmax (glucose) [3]: 38.33 nmol/min/mg | Vmax (glucose) ([3]; cell wet weight, ± SEM): 38.3 ± 1.4 nmol/min/mg
